# Legend:
# Aspergillus fumigatus [1] = assay: MIC/MFC broth microdilution (CLSI); settings: ATCC204305
# Experimental: (§1) Antifungal susceptibility was determined by broth microdilution according to the CLSI guidelines described in M27-Ed4 ([16]). […] MFC was determined by back-plating drug-treated cultures from MIC broths onto SDA plates. The MFC was defined as the lowest concentration from which no colonies could be cultured.
# Aspergillus parafelis = assay: MIC broth microdilution (CLSI); format: cell-based; settings: Aspergillus parafelis DTO 341-F2
# Experimental: (§2) Antifungal susceptibility was determined by broth microdilution according to the CLSI guidelines described in M27-Ed4 ([16]).
# Aspergillus udagawae = assay: MIC broth microdilution (CLSI); format: cell-based; settings: Aspergillus udagawae 8G81
# Experimental: as §2
# Trichophyton tonsurans = assay: checkerboard drug interaction (FICI, MICc); format: cell-based;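 further: simplified diagonal checkerboard screen combining antifungals with FPPS inhibitors, with FICI calculated under the Loewe additivity model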
# Experimental: (§3) Drug interactions between antifungals and FPPS inhibitors were investigated using a simplified checkerboard diagonal screening method ([45]). […] FICIs were determined according to the Loewe additivity model ([17]).
# Aspergillus flavus [2] = assay: checkerboard drug interaction (FICI, MICc); format: cell-based;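 further: simplified diagonal checkerboard screen pairing azole antifungals with FPPS inhibitors, FICI calculated under the Loewe additivity model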
# Experimental: as §3
# Cryptococcus neoformans [3] = assay: checkerboard drug interaction (FICI, MICc); format: cell-based;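 further: antifungal plus FPPS inhibitor pairs tested against Cryptococcus neoformans by simplified diagonal checkerboard screening, FICI computed under the Loewe additivity model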
# Experimental: as §3
# Candida glabrata [4] = assay: MIC/MFC broth microdilution (CLSI); settings: for MIC / MEC: Candida glabrata CBS138 (ATCC 2001); for MFC / MIC: Nakaseomyces glabratus, CBS138;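 on all read-outs here: broth microdilution following CLSI M27-Ed4, MFC taken as the lowest drug level yielding no growth once MIC wells were subcultured on SDA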
# Experimental: as §1
# eight fungal species = assay: MIC/MFC summary across the eight fungal species of Table 1; format: cell-based; settings: for MFC: across eight species, read-out: Geometric mean MFC; for MIC: read-out: Geometric mean MIC
# Experimental: The antifungal activity of these compounds was evaluated according to CLSI guidelines ([16]).
# Aspergillus flavus [5] = assay: MIC/MFC broth microdilution (CLSI); settings: ATCC204304
# Experimental: as §1
# Aspergillus fumigatus [6] = assay: checkerboard drug interaction (FICI, MICc); format: cell-based;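 further: simplified diagonal checkerboard screen pairing antifungals with FPPS inhibitors against Aspergillus fumigatus, with FICI calculated under the Loewe additivity model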
# Experimental: as §3
# Candida albicans [7] = assay: MIC/MFC broth microdilution (CLSI); format: cell-based; settings: Candida albicans SC5314
# Experimental: as §1
# Candida albicans [8] = assay: checkerboard drug interaction (FICI, MICc); format: cell-based;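 further: antifungal plus FPPS inhibitor combinations on Candida albicans tested by a simplified diagonal checkerboard screen, with FICI calculated under the Loewe additivity model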
# Experimental: as §3
# Cryptococcus neoformans [9] = assay: MIC/MFC broth microdilution (CLSI); settings: for MFC / MIC: Cryptococcus neoformans; for MIC / MEC: Cryptococcus neoformans H99;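 on all read-outs here: susceptibility testing followed the CLSI M27-Ed4 broth microdilution document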
# Experimental: as §1
# Trichophyton rubrum [10] = assay: checkerboard drug interaction (FICI, MICc); format: cell-based;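 further: simplified diagonal checkerboard screen pairing azole antifungals with FPPS inhibitors, FICI calculated under the Loewe additivity model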
# Experimental: as §3
# Candida glabrata [11] = assay: checkerboard drug interaction (FICI, MICc); format: cell-based;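 further: simplified diagonal checkerboard screen pairing antifungals with FPPS inhibitors, FICI calculated under the Loewe additivity model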
# Experimental: as §3
# [12] = test system: Cryptococcus deuterogattii; assay: checkerboard drug interaction (FICI, MICc); format: cell-based;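 further: simplified diagonal checkerboard screen pairing antifungal drugs with FPPS inhibitors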
# Experimental: as §3
# Saccharomyces cerevisiae [13] = assay: MIC/MFC broth microdilution (CLSI); format: cell-based; settings: Saccharomyces cerevisiae S288c
# Experimental: as §1
# [14] = test system: Cryptococcus deuterogattii; assay: MIC/MFC broth microdilution (CLSI); settings: for MFC / MIC: Cryptococcus deuterogattii; for MIC / MEC: Cryptococcus deuterogattii R265;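 on all read-outs here: broth microdilution per CLSI M27-Ed4. MFC is the lowest concentration yielding no colonies when MIC broths are subcultured onto SDA plates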
# Experimental: as §1
# Trichophyton rubrum [15] = assay: MIC/MFC broth microdilution (CLSI); settings: for MFC / MIC: Trichophyton rubrum; for MIC / MEC: Trichophyton rubrum R-218
# Experimental: as §1
# Saccharomyces cerevisiae [16] = assay: checkerboard drug interaction (FICI, MICc); format: cell-based;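 further: simplified diagonal checkerboard screen pairing antifungals with FPPS inhibitors, FICI calculated under the Loewe additivity model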
# Experimental: as §3
smiles,measurement,setting,value
"CCC(C)n1ncn(-c2ccc(N3CCN(c4ccc(OCC5COC(Cn6cncn6)(c6ccc(Cl)cc6Cl)O5)cc4)CC3)cc2)c1=O (centres unmarked) [ITR, itraconazole]",MFC,Aspergillus fumigatus [1],4 µg/mL
same,MIC,Aspergillus fumigatus [1],0.125 µg/mL
same,MIC / MEC,Aspergillus fumigatus [1],0.13 µg/mL
same,MIC / MEC,Aspergillus parafelis,8 µg/mL
same,MIC / MEC,Aspergillus udagawae,1 µg/mL
same,antifungal MICc,Trichophyton tonsurans; in combination with 10-ZOL,0.25
same,antifungal MICc,Trichophyton tonsurans; in combination with ZOL,0.25
same,antifungal MICc,Aspergillus flavus [2]; in combination with 10-ZOL,0.5
same,antifungal MICc,Aspergillus flavus [2]; in combination with ZOL,0.5
same,antifungal MICc,Cryptococcus neoformans [3]; in combination with 10-ZOL,0.063
same,antifungal MICc,Cryptococcus neoformans [3]; in combination with ZOL,0.125
same,MIC / MEC,Candida glabrata [4],0.13 µg/mL
same,MFC,Candida glabrata [4],4 µg/mL
same,MIC,Candida glabrata [4],0.125 µg/mL
same,MFC,eight fungal species,3.7 µg/mL
same,MIC,eight fungal species,0.5 µg/mL
same,MFC,Aspergillus flavus [5],2 µg/mL
same,MIC,Aspergillus flavus [5],0.5 µg/mL
same,MIC / MEC,Aspergillus flavus [5],0.5 µg/mL
same,antifungal MICc,Aspergillus fumigatus [6]; in combination with 10-ZOL,0.063
same,antifungal MICc,Aspergillus fumigatus [6]; in combination with ZOL,0.063
same,MFC,Candida albicans [7],2 µg/mL
same,MIC,Candida albicans [7],0.25 µg/mL
same,MIC / MEC,Candida albicans [7],0.25 µg/mL
same,antifungal MICc,Candida albicans [8]; in combination with 10-ZOL,0.25
same,antifungal MICc,Candida albicans [8]; in combination with ZOL,0.25
same,MFC,Cryptococcus neoformans [9],4 µg/mL
same,MIC,Cryptococcus neoformans [9],0.5 µg/mL
same,MIC / MEC,Cryptococcus neoformans [9],0.5 µg/mL
same,antifungal MICc,Trichophyton rubrum [10]; in combination with 10-ZOL,1
same,antifungal MICc,Trichophyton rubrum [10]; in combination with ZOL,2
same,antifungal MICc,Candida glabrata [11]; in combination with 10-ZOL,0.031
same,antifungal MICc,Candida glabrata [11]; in combination with ZOL,0.016
same,antifungal MICc,[12]; in combination with 10-ZOL,0.125
same,antifungal MICc,[12]; in combination with ZOL,0.25
same,MFC,Saccharomyces cerevisiae [13],1 µg/mL
same,MIC,Saccharomyces cerevisiae [13],0.25 µg/mL
same,MIC / MEC,Saccharomyces cerevisiae [13],0.25 µg/mL
same,MFC,[14],4 µg/mL
same,MIC,[14],1 µg/mL
same,MIC / MEC,[14],1 µg/mL
same,MFC,Trichophyton rubrum [15],> 16 µg/mL
same,MIC,Trichophyton rubrum [15],8 µg/mL
same,MIC / MEC,Trichophyton rubrum [15],8 µg/mL
same,antifungal MICc,Saccharomyces cerevisiae [16]; in combination with 10-ZOL,0.125
same,antifungal MICc,Saccharomyces cerevisiae [16]; in combination with ZOL,0.063
"CC(=O)N1CCN(c2ccc(OCC3COC(Cn4ccnc4)(c4ccc(Cl)cc4Cl)O3)cc2)CC1 (centres unmarked) [KET, ketoconazole]",MFC,Aspergillus fumigatus [1],16 µg/mL
same,MIC,Aspergillus fumigatus [1],4 µg/mL
same,MIC / MEC,Aspergillus fumigatus [1],4 µg/mL
same,MIC / MEC,Aspergillus parafelis,>16 µg/mL
same,MIC / MEC,Aspergillus udagawae,8 µg/mL
same,antifungal MICc,Trichophyton tonsurans; in combination with 10-ZOL,0.25
same,antifungal MICc,Trichophyton tonsurans; in combination with ZOL,0.5
same,antifungal MICc,Aspergillus flavus [2]; in combination with 10-ZOL,1
same,antifungal MICc,Aspergillus flavus [2]; in combination with ZOL,2
same,antifungal MICc,Cryptococcus neoformans [3]; in combination with 10-ZOL,0.063
same,antifungal MICc,Cryptococcus neoformans [3]; in combination with ZOL,0.125
same,MIC / MEC,Candida glabrata [4],0.5 µg/mL
same,MFC,Candida glabrata [4],4 µg/mL
same,MIC,Candida glabrata [4],0.5 µg/mL
same,MFC,eight fungal species,6.7 µg/mL
same,MIC,eight fungal species,1.3 µg/mL
same,MFC,Aspergillus flavus [5],8 µg/mL
same,MIC,Aspergillus flavus [5],2 µg/mL
same,MIC / MEC,Aspergillus flavus [5],2 µg/mL
same,antifungal MICc,Aspergillus fumigatus [6]; in combination with 10-ZOL,0.25
same,antifungal MICc,Aspergillus fumigatus [6]; in combination with ZOL,2
same,MFC,Candida albicans [7],0.25 µg/mL
same,MIC,Candida albicans [7],0.0625 µg/mL
same,MIC / MEC,Candida albicans [7],0.06 µg/mL
same,antifungal MICc,Candida albicans [8]; in combination with 10-ZOL,0.125
same,antifungal MICc,Candida albicans [8]; in combination with ZOL,0.25
same,MFC,Cryptococcus neoformans [9],4 µg/mL
same,MIC,Cryptococcus neoformans [9],0.25 µg/mL
same,MIC / MEC,Cryptococcus neoformans [9],0.25 µg/mL
same,antifungal MICc,Trichophyton rubrum [10]; in combination with 10-ZOL,1
same,antifungal MICc,Trichophyton rubrum [10]; in combination with ZOL,1
same,antifungal MICc,Candida glabrata [11]; in combination with 10-ZOL,0.016
same,antifungal MICc,Candida glabrata [11]; in combination with ZOL,0.031
same,antifungal MICc,[12]; in combination with 10-ZOL,0.063
same,antifungal MICc,[12]; in combination with ZOL,0.5
same,MFC,Saccharomyces cerevisiae [13],8 µg/mL
same,MIC,Saccharomyces cerevisiae [13],1 µg/mL
same,MIC / MEC,Saccharomyces cerevisiae [13],1 µg/mL
same,MFC,[14],8 µg/mL
same,MIC,[14],4 µg/mL
same,MIC / MEC,[14],4 µg/mL
same,MFC,Trichophyton rubrum [15],> 16 µg/mL
same,MIC,Trichophyton rubrum [15],4 µg/mL
same,MIC / MEC,Trichophyton rubrum [15],4 µg/mL
same,antifungal MICc,Saccharomyces cerevisiae [16]; in combination with 10-ZOL,0.25
same,antifungal MICc,Saccharomyces cerevisiae [16]; in combination with ZOL,0.25

# Source: publication PMC12892976, “Alkylation-based optimization of antifungal FPPS inhibitors yields a potent, broad-spectrum lipophilic zoledronate derivative” (mBio, 2025)
